From patent US20040072811A1, “Use of antiprogestins for the induction of apoptosis in a cell” (priority 2000, published 2004)
Entries after “also recorded” stand apart in the source; their conditions may differ.

Assays:
[1] = system: T47D cells; assay: Antiproliferative activity in vitro in the T47D cell line (estradiol-stimulated, crystal violet); format: cell-based, human; conditions: 0.1 nM estradiol, 6 days
Method: T47D cells were grown in charcoal-treated serum supplemented with 0.1 nM E2 (estradiol) plus antiprogestin (I) for 6 days with one medium change. Following fixation and subsequent staining with crystal violet, the absorbance was recorded and values normalized to the absorbance of untreated controls as described in R. B. Lichtner, J. Steroid Biochem. Mol. Biol. 1999, 71; 181-189. The TUNEL assay is performed analogous to above Example 5 with the only difference that instead of tissue sections cells that are cultivated on microscopic slides are used for the assay.

[2] = system: NMU-induced mammary carcinoma of the rat; assay: Tumor growth inhibition in NMU-induced breast cancer model in rat; format: in vivo, Sprague-Dawley rats; conditions: 5 mg/kg/day, 4 weeks
Method: Tumors were induced by a single intravenous injection of NMU (nitrosomethylurea, 50 mg/kg) in female Sprague-Dawley rats (obtained from Tierzucht Schönwalde, age 50-55 days). Starting 10 days later, rats with at least one established tumor were treated for 4 weeks by: 1) solvent control, 2) ovariectomy at treatment start, 3) antiprogestin (I), 1.0 mg/kg/day, 4) antiprogestin (1), 0.5 mg/kg/day and 5) onapristone, 5 mg/kg/day. As a parameter for growth inhibition the change of tumor area (in % of initial tumor size) determined by weekly caliper measurements was used. For statistical analysis of intergroup differences of mean values the Kruskal-Wallis-test was used.

[3] = system: DMBA-induced mammary carcinoma of the rat; assay: Dose-response study in the DMBA-induced mammary tumor model; format: in vivo, Sprague-Dawley rats; conditions: 5 mg/kg s.c. daily, 4 weeks
Method: Immature female Sprague-Dawley rats (49-51 days old; 10 animals/group) were used in this study. Mammary tumors were induced by a single oral administration of 10 mg 7,12-dimethylbenz[a]anthracene (DMBA, Serva/Heidelberg). Rats with at least one established tumor with a size of more than 150 mm^2 were treated for 4 weeks by: 1) solvent control, 2) ovariectomy at treatment start, 3) antiprogestin (I), 0,5 mg/kg s.c., 4) antiprogestin (1), 2 mg/kg s.c., 5) antiprogestin (I), 5 mg/kg s.c., 6) antiprogestin (1), 10 mg/kg s.c., and 7) onapristone, 5 mg/kg, s.c., daily. As a parameter for growth inhibition the change of tumor area (in % with respect to initial tumor size) determined by weekly caliper measurements was used. For statistical analysis of intergroup differences of mean values the Kruskal-Wallis-test was used. For a further description and evaluation of the DMBA prevention model, see R. G. Metha, European Journal of Cancer 36 (2000), pp. 1275-1282.

| SMILES | inhibition of estradiol-stimulated T47D cell growth [1] | tumor growth inhibiting effect relative to antiprogestin (I) at 0.5 mg/kg [2] | tumor growth inhibiting effect relative to antiprogestin (I) [3] |
| --- | --- | --- | --- |
| CN(CCCCC[C@@H]1Cc2cc(O)ccc2[C@@H]2[C@@H]1[C@@H]1CC[C@H](O)[C@@]1(C)C[C@@H]2F)CCCSCCCC(F)(F)C(F)(F)F [11β-fluoro-7α-{5-[N-methyl-N-3-(4,4,5,5,5-pentafluoropentylthio)-propylamino]-pentyl}-estra-1,3,5(10)-trien-3,17β-diol] | distinctly less effective than antiprogestin (I) | – | – |
| CN(C)c1ccc([C@H]2C[C@]3(C)[C@@H](CC[C@]3(O)CCCO)[C@@H]3CCC4=CC(=O)CCC4=C32)cc1 [onapristone, reference compound] | did not show any inhibiting effect; also recorded: no reducing effect on cell growth | distinctly less effective than antiprogestin (1) | distinctly less effective than antiprogestin (I) |
